Where two headings read alike, the source gives them in different places.
System: P. falciparum (NF54 or 3D7 strain)
Test: Assay for P. falciparum proliferation in infected human blood cells (SYBR Green)
Format: cell-based, Plasmodium falciparum
Details: NF54 or 3D7 infected human erythrocytes, 72 hours, read-out: EC50 (nM), inhibitory efficacy in delaying P. falciparum proliferation in infected human blood cells
Procedure: Assay for P. falciparum Proliferation in Infected Human Blood Cells
Compounds of the invention can be assayed to measure their capacity to inhibit proliferation of P. falciparum parasitemia in infected red blood cells. This parasite proliferation assay measures the increase in parasite DNA content using a DNA intercalating dye, SYBR Green® (INVITROGEN®) which has a high affinity for double stranded DNA.
NF54 or 3D7 P. falciparum strain is grown in complete culturing media until parasitemia reaches 3% to 8% with O+ human erythrocytes. […] 20 μl of screening media is dispensed into 384 well assay plates. 50 nl of compounds of the invention (in DMSO), including antimalarial controls (mefloquine, pyrimethamine and artemisinin), are then transferred into the assay plates, as well as DMSO alone to serve as a negative control for inhibition. Then 30 μl of a suspension of a NF54 or 3D7 P. falciparum infected erythrocytes in screening media is dispensed into the assay plates such that the final hematocrit is 2.5% with a final parasitemia of 0.3%. The plates are placed in a 37° C. incubator for 72 hours in a low oxygen environment containing 93% N2, 4% CO2, and 3% O2 gas mixture. 10 μl of lysis buffer (saponin, triton-X, EDTA) containing a 10× solution of SYBR Green I® in RPMI media is dispensed into the plates. The plates are lidded and kept at room temperature overnight for the lysis of the infected red blood cells. The fluorescence intensity is measured (excitation […], emission 530 nm) using the Envision™ system (Perkin Elmer).

[1] = Plasmodium falciparum, Erythrocyte, 72 h

| Molecule | EC50 [1] [nM] | EC50 [nM] |
| --- | --- | --- |
| CN(C(=O)c1cn2c(-c3ccc(Cl)cc3)cnc2cn1)c1ccc(C#N)cc1 [Compound 132, 3-(4-chlorophenyl)-N-(4-cyanophenyl)-N-methylimidazo[1,2-a]pyrazine-6-carboxamide] | 206 |  |
| CN(C(=O)c1cn2c(-c3ccc(C#N)cc3)cnc2cn1)c1ccc(S(C)(=O)=O)cc1 [Compound 232, 3-(4-cyanophenyl)-N-(4-methanesulfonylphenyl)-N-methylimidazo[1,2-a]pyrazine-6-carboxamide] | 3990 |  |
| CN(C(=O)c1cn2c(-c3ccc(Cl)cc3)cnc2cn1)c1ccc(Cl)nc1 [Compound 81, -(4-chlorophenyl)-N-(6-chloropyridin-3-yl)-N-methylimidazo[1,2-a]pyrazine-6-carboxamide] | 382 |  |
| COc1cc(Cl)ccc1N(C)C(=O)c1cn2c(-c3ccc(C(F)(F)F)cc3)cnc2cn1 [Compound 59, N-(4-chloro-2-methoxyphenyl)-N-methyl-3-[4-(trifluoromethyl)phenyl]imidazo[1,2-a]pyrazine-6-carboxamide] | 35 |  |
| CN(C(=O)c1cn2c(-c3ccc(C(F)(F)F)cc3)cnc2cn1)c1ccc(Cl)c(Cl)c1 [Compound 55, N-(3,4-dichlorophenyl)-N-methyl-3-[4-(trifluoromethyl)phenyl]imidazo[1,2-a]pyrazine-6-carboxamide] | 160 |  |
| CC(=O)Nc1ccc(-c2cnc3cnc(C(=O)N(C)c4ccc(C)cn4)cn23)cc1 [Compound 361, 3-(4-acetamidophenyl)-N-methyl-N-(5-methylpyridin-2-yl)imidazo[1,2-a]pyrazine-6-carboxamide] | 5150 |  |
| COC[C@@H]1CCCN1c1ccc(N(C)C(=O)c2cn3c(-c4ccc(C(F)(F)F)cc4)cnc3cn2)cn1 [Compound 359, N-{6-[(2S)-2-(methoxymethyl)pyrrolidin-1-yl]pyridin-3-yl}-N-methyl-3-[4-(trifluoromethyl)phenyl]imidazo[1,2-a]pyrazine-6-carboxamide] | > 10000 |  |
| CN(C(=O)c1cn2c(-c3ccc(C(F)(F)F)cc3)cnc2cn1)c1ccc(CN)cc1 [Compound 375, N-[4-(aminomethyl)phenyl]-N-methyl-3-[4-(trifluoromethyl)phenyl]imidazo[1,2-a]pyrazine-6-carboxamide] | > 6830 |  |
| CN(C(=O)c1cn2c(-c3ccc(NC(C)(C)CNC(=O)OC(C)(C)C)cc3)cnc2cn1)c1ccc(C#N)cc1 [Compound 300, tert-butyl N-{2-[(4-{6-[(4-cyanophenyl)(methyl)carbamoyl]imidazo[1,2-a]pyrazin-3-yl}phenyl)amino]-2-methylpropyl}carbamate] | 2990 |  |
| CN(C(=O)c1cn2c(-c3ccnc(Cl)c3)cnc2cn1)c1ccc(C#N)cc1 [Compound 27, 3-(2-chloropyridin-4-yl)-N-(4-cyanophenyl)-N-methylimidazo[1,2-a]pyrazine-6-carboxamide] | > 10000 |  |
| CN(Cc1cn2c(-c3ccc4c(cnn4C)c3)cnc2cn1)c1ccc(F)cc1 [Compound 8, 4-fluoro-N-methyl-N-((3-(1-methyl-1H-indazol-5-yl)imidazo[1,2-a]pyrazin-6-yl)methyl)aniline] | 21 |  |
| CN(C)C(=O)c1ccc(-c2cnc3cnc(C(=O)N(C)c4ccc(C#N)cc4)cn23)cc1 [Compound 427, N-(4-cyanophenyl)-3-[4-(dimethylcarbamoyl)phenyl]-N-methylimidazo[1,2-a]pyrazine-6-carboxamide] | > 9800 |  |
| COc1ccc(-c2cnc3cnc(C(=O)N(C)c4ccc(Cl)nc4)cn23)cc1 [Compound 100, N-(6-chloropyridin-3-yl)-3-(4-methoxyphenyl)-N-methylimidazo[1,2-a]pyrazine-6-carboxamide] | 297 |  |
| CN(C(=O)c1cn2c(-c3ccc(C(F)(F)F)cc3)cnc2cn1)c1ccc(C#N)nc1 [Compound 147, N-(6-cyanopyridin-3-yl)-N-methyl-3-[4-(trifluoromethyl)phenyl]imidazo[1,2-a]pyrazine-6-carboxamide] | 564 |  |
| COc1ccc(-c2ccc(N(C)C(=O)c3cn4c(-c5ccc(OC)cc5C)cnc4cn3)cn2)c(C)c1 [Compound 302, 3-(4-methoxy-2-methylphenyl)-N-[6-(4-methoxy-2-methylphenyl)pyridin-3-yl]-N-methylimidazo[1,2-a]pyrazine-6-carboxamide] | 1850 |  |
| CN(C)c1ccc(N(C)C(=O)c2cn3c(-c4ccc(C(F)(F)F)cc4)cnc3cn2)cn1 [Compound 394, N-[6-(dimethylamino)pyridin-3-yl]-N-methyl-3-[4-(trifluoromethyl)phenyl]imidazo[1,2-a]pyrazine-6-carboxamide] | 4910 |  |

| Molecule | EC50 [1] [nM] | EC50 [nM] |
| --- | --- | --- |
| CN(C(=O)c1cn2c(-c3ccc(C(F)(F)F)cc3)cnc2cn1)c1ccc(Cl)nc1 [Compound 78, N-(6-chloropyridin-3-yl)-N-methyl-3-[4-(trifluoromethyl)phenyl]imidazo[1,2-a]pyrazine-6-carboxamide] | 181 |  |
| Cc1ccc(N(C)C(=O)c2cn3c(-c4ccc(OCCN)cc4)cnc3cn2)nc1 [Compound 409, 3-[4-(2-aminoethoxyl)phenyl]-N-methyl-N-(5-methylpyridin-2-yl)imidazo[1,2-a]pyrazine-6-carboxamide] | > 9340 |  |
| CN(C(=O)c1cn2c(-c3ccc(C(F)(F)F)cc3)cnc2cn1)c1ccc(C#N)cn1 [Compound 89, N-(5-cyanopyridin-2-yl)-N-methyl-3-[4-(trifluoromethyl)phenyl]imidazo[1,2-a]pyrazine-6-carboxamide] | 2070 |  |
| COc1ccc(-c2cnc3cnc(C(=O)N(C)c4ccc(Cl)cc4Cl)cn23)cc1 [Compound 41, N-(2,4-dichlorophenyl)-3-(4-methoxyphenyl)-N-methylimidazo[1,2-a]pyrazine-6-carboxamide] | 97 |  |
| CN(C(=O)c1cn2c(-c3ccc(Cl)c(F)c3)cnc2cn1)c1ccc(C#N)cc1 [Compound 71, 3-(4-chloro-3-fluorophenyl)-N-(4-cyanophenyl)-N-methylimidazo[1,2-a]pyrazine-6-carboxamide] | 1300 |  |
| CN(C(=O)c1cn2c(-c3ccc(C(F)(F)F)cc3Cl)cnc2cn1)c1ccc(C#N)cc1 [Compound 31, 3-[2-chloro-4-(trifluoromethyl)phenyl]-N-(4-cyanophenyl)-N-methylimidazo[1,2-a]pyrazine-6-carboxamide] | 1200 |  |
| COc1ccc(N(C)C(=O)c2cn3c(-c4ccc(C(F)(F)F)cc4)cnc3cn2)cn1 [Compound 88, N-(6-methoxypyridin-3-yl)-N-methyl-3-[4-(trifluoromethyl)phenyl]imidazo[1,2-a]pyrazine-6-carboxamide] | 1740 |  |
| CC(=O)c1ccc(N(C)C(=O)c2cn3c(-c4ccc(C(F)(F)F)cc4)cnc3cn2)cc1 [Compound 425, N-(4-acetylphenyl)-N-methyl-3-[4-(trifluoromethyl)phenyl]imidazo[1,2-a]pyrazine-6-carboxamide] | 1020 |  |
| COc1cc(C#N)ccc1N(C)C(=O)c1cn2c(-c3ccc(C(F)(F)F)cc3)cnc2cn1 [Compound 503, N-(4-cyano-2-methoxyphenyl)-N-methyl-3-[4-(trifluoromethyl)phenyl]imidazo[1,2-a]pyrazine-6-carboxamide] | 60 |  |
| 4-{6-[N-methyl(4-cyanobenzene)amido]imidazo[1,2-a]pyrazin-3-yl}benzamide [Compound 495] |  | 405 |
| CN(C(=O)c1cn2c(-c3ccc(C(=O)NC4CC4)cc3)cnc2cn1)c1ccc(C#N)cc1 [Compound 158, N-(4-cyanophenyl)-3-[4-(cyclopropylcarbamoyl)phenyl]-N-methylimidazo[1,2-a]pyrazine-6-carboxamide] | 2050 |  |
| CN(C(=O)c1cn2c(-c3ccc(C#N)cc3)cnc2cn1)c1ccc(C#N)cc1 [Compound 377, N,3-bis(4-cyanophenyl)-N-methylimidazo[1,2-a]pyrazine-6-carboxamide] | 8190 |  |
| Cc1ccc(N(C)Cc2cn3c(-c4ccc(C(F)(F)F)cc4)cnc3cn2)nc1 [Compound 287, N,5-dimethyl-N-({3-[4-(trifluoromethyl)phenyl]imidazo[1,2-a]pyrazin-6-yl}methyl)pyridin-2-amine] | 972 |  |
| N#Cc1ccc(N(CCN)C(=O)c2cn3c(-c4ccc(C(F)(F)F)cc4)cnc3cn2)cc1 [Compound 386, N-(2-aminoethyl)-N-(4-cyanophenyl)-3-[4-(trifluoromethyl)phenyl]imidazo[1,2-a]pyrazine-6-carboxamide] | > 10000 |  |
| CN(C(=O)c1cn2c(-c3ccc(NC(=O)C(C)(C)N)cc3)cnc2cn1)c1ccc(C#N)cc1 [Compound 408, 3-[4-(2-amino-2-methylpropanamido)phenyl]-N-(4-cyanophenyl)-N-methylimidazo[1,2-a]pyrazine-6-carboxamide] | > 9300 |  |
| CN(C)c1ccc(-c2cnc3cnc(CN(C)c4ccc(C#N)cc4)cn23)cc1 [Compound 437, 4-[({3-[4-(dimethylamino)phenyl]imidazo[1,2-a]pyrazin-6-yl}methyl)(methyl)amino]benzonitrile] | 176 |  |
